Measurements reported in patent US9540423B2, “Plant defensins and use in the treatment of proliferative diseases” (Balmoral Australia Pty Ltd, priority 2011, dated 2017).
Like-named read-outs stand apart in the source and are kept apart here.

Experiments:
[1] = subcutaneous, intraperitoneal or intratumoural routes; previous studies; cited from earlier work
[2] = tested on: Aspergillus nidulans; details: cited from earlier work
[3] = tested on: Verticillium dahliae; details: cited from earlier work
[4] = tested on: normal human umbilical vein endothelial cells (HUVEC); assay: MTT cell viability assay, HUVEC; type: cell-based; details: 48 h
Method: Tumour cells were seeded in quadruplicate into wells of a flat-bottomed 96-well microtitre plate (50 μL) at various densities starting at 2×10^6 cells/mL. Four wells containing complete culture medium alone were included in each assay as a background control. The microtitre plate was incubated overnight at 37° C. under a humidified atmosphere containing 5% CO2/95% air, prior to the addition of complete culture medium (100 μL) to each well and further incubated at 37° C. for 48 h. Optimum cell densities (30-50% confluency) for cell viability assays were determined for each cell line by light microscopy.
Tumour cells were seeded in a 96-well microtitre plate (50 μL/well) at an optimum density determined in the cell optimisation assay as above. Background control wells (n=8) containing the same volume of complete culture medium were included in the assay. The microtitre plate was incubated overnight at 37° C., prior to the addition of proteins at various concentrations and the plate was incubated for a further 48 h. […]
The effect of NoD173 on the viability of a tumour cell line and a normal human cell isolate was determined using a 3-(4,5-dimethyl-2-thiazolyl)-2,5-diphenyl-2H-tetrazolium bromide (MTT) in vitro cell culture viability assay. […]

[5] = tested on: Fusarium oxysporum f. sp. vasinfectum (Fov); details: cited from earlier work
[6] = tested on: Leptosphaeria maculans; details: cited from earlier work
[7] = tested on: Thielaviopsis basicola; details: cited from earlier work
[8] = tested on: Phoma betae; details: cited from earlier work

| Substance | Dose at which toxicity was shown [1] | Growth inhibition of A. nidulans ([2]; 1 μM) | Growth inhibition of A. nidulans ([2]; 5 μM) | Growth inhibition of V. dahliae ([3]; 1 μM) | Growth inhibition of V. dahliae ([3]; 5 μM) | IC50 [4] | Growth inhibition of Fov ([5]; 1 μM) | Growth inhibition of Fov ([5]; 5 μM) | Growth inhibition of L. maculans ([6]; 1 μM) | Growth inhibition of L. maculans ([6]; 5 μM) | Growth inhibition of T. basicola ([7]; 1 μM) | Growth inhibition of T. basicola ([7]; 5 μM) | Concentration inhibiting growth of Phoma betae [8] |
| --- | --- | --- | --- | --- | --- | --- | --- | --- | --- | --- | --- | --- | --- |
| NaD1: plant defensin isolated from floral tissue of Nicotiana alata; model class II defensin (RECKTESNTFPGICITKPPCRKACISEKFTDGHCSKILRRCLCTKPC; UniProt Q8GTM0 26-72, looked up) | above 1 mg/kg body weight | approximately 65% | more than 80% | approximately 65% | more than 80% | 15 µM | 50% | more than 80% | 50% | more than 80% | approximately 65% | more than 80% |  |
| Rs-AFP2: antifungal protein (plant defensin) isolated from radish seeds, 51 amino acids (QKLCQRPSGTWSGVCGNNNACKNQCIRLEKARHGSCNYVFPAHKCICYFPC; UniProt P30230 30-80, looked up) |  |  |  |  |  |  |  |  |  |  |  |  | 1 µg/mL |
